According to patent publication US20230374503A1, “COMBINATION” (AstraZeneca AB, priority 2014, published 2023):
In the oligonucleotide strings, read from the 5' end, every base follows the letter of its sugar. An asterisk marks phosphorothioate; unmarked linkages are phosphodiester. Other units and linkages are bracketed, terminal groups are in braces. A string of capitals states the bases alone. k = constrained ethyl (cEt); [5mC] = 5-methylcytosine; d = 2'-deoxy (DNA)

Key:
CT-26 tumors = test: CT-26 tumor volume with control ASO and isotype control antibody (Example 4); type: in vivo, mouse; details: FIG. 4
Experimental: (§1) The antitumor efficacy of mouse STAT3 ASO in combination with antibodies targeting PD-L1 or CTLA-4, or with an OX40 ligand fusion protein, were evaluated in three mouse syngeneic tumor models: CT-26 (colorectal), 4T1 (mammary) and A20 (lymphoma). Details of tumor implantation and treatment schedules for each model are in the table below. The QD×5/wk dosing schedule for the STAT3 ASO (same ASO as used in Example 1) was 5 days of treatment followed by 2 days without treatment. The 2×/wk dosing schedule for antibodies was 2 treatments/wk evenly spaced over the course of the week (e.g., Monday and Thursday, or Tuesday and Friday, etc.). ASO treatments began before randomization into treatment groups. […] There were ten mice in each treatment group.
(§2) The mouse STAT3 ASO was formulated in PBS and dosed subcutaneously. The Abs and FP were also formulated in PBS, and dosed introperitoneally. During the course of the experiment, tumor length and width were measured by caliper, and tumor volume calculated using the formula volume=(length×width^2)*π/6.
The CT-26 experiment in Example 3 included treatment with a control ASO (AZD9150) and an isotype control antibody (rat IgG2b, product LTF-2, purchased from BioXCell, West Lebanon NH) as negative controls.

mouse STAT3 sequences = test: Cross reaction of human STAT3 ASO with mouse STAT3 sequences; details: human STAT3 targeted ASO
immune-related genes = test: Nanostring gene expression profiling of patient tumor biopsies, Phase I trial (Example 8); type: in vivo, human; details: DLBCL patients; 2 or 3 mg/kg; 4-6 weeks on treatment vs baseline; five of six signature genes
Experimental: Tumor biopsies were collected in a Phase I clinical trial from cancer patients treated with AZD9150 before treatment started and at 4-6 weeks after treatment commenced. Patients received three loading doses 2 or 3 mg/kg AZD9150 during the first week on days 1, 3, and 5, followed by weekly doses thereafter. Nine of the sets of biopsies were from patients with Diffuse Large B Cell Lymphoma, two were from patients with follicular lymphoma, and one was from a patient with non-small cell lung cancer. The biopsies were formalin fixed and paraffin embedded and sectioned. RNA was isolated from six five-micron sections of each biopsy and subjected to Nanostring gene expression profiling analysis using the nCounter Human Immunology Codeset representing 594 immune-related genes. Raw data were calibrated according to Veldman-Jones et al., (Cancer Research. 75:2587, 2015) and analyzed for changes on-treatment compared to the baseline pretreatment samples. A heatmap representing unsupervised clustering of the largest and most statistically relevant gene expression changes in DLBCL was generated.

DLBCL and HCC = test: AZD9150 Phase I clinical trials; type: in vivo, human
advanced melanoma = details: phase III; cited from earlier work
[1] = tested on: CT-26 (colorectal), 4T1 (mammary) and A20 (lymphoma); test: Three mouse syngeneic tumor models, tumor volume (Example 3); type: in vivo; details: at the doses and schedules of Example 3; FIG. 3
Experimental: as §1, §2

xenograft model = details: via a T-cell dependent mechanism; cited from earlier work

AZD9150: human STAT3 antisense 3-10-3 cEt gapmer, phosphorothioate, 5-methylcytosines, CTATTTGGATGTCAGC (SEQ ID NO: 2) (antisense k[5mC]*kT*kA*dT*dT*dT*dG*dG*dA*dT*dG*dT*d[5mC]*kA*kG*k[5mC])
enhancement of the activity of the anti-PD-L1 antibody (CT-26 tumors; AZD9150 plus PD-L1 Ab, CT-26 tumors): no enhancement of the activity of the anti-PD-L1 antibody | antitumor activity of negative controls (CT-26 tumors; mice bearing CT-26 tumors): No Antitumor Activity | cross reaction with mouse STAT3 sequences (mouse STAT3 sequences): does not cross react with mouse STAT3 sequences | upregulated "interferon gamma gene signature" genes in tumor biopsies (immune-related genes): STAT1, IFN-gamma, CXCL9, CXCL10, and IDO | clinical response (DLBCL and HCC): clinical responses in DLBCL and HCC at tolerated doses

tremelimumab: human IgG2 monoclonal antibody highly selective for CTLA-4
overall survival compared to standard of care (temozolomide or dacarbazine) (advanced melanoma): did not significantly increase the overall survival

B1: OX40 ligand FP: Mouse OX40 ligand fusion protein generated in house, SEQ ID NO: 37 and 38 (protein)
chain: VPRDCGCKPCICTVPEVSSVFIFPPKPKDVLTITLTPKVTCVVVDISKDDPEVQFSWFVDDVEVHTAQTQPREEQFNSTFRSVSELPIMHQDWLNGKEFKCRVNSAAFPAPIEKTISKTKGRPKAPQVYTIPPPKEQMAKDKVSLTCMITDFFPEDITVEWQWNGQPAENYKNTQPIMDTDGSYFVYSKLNVQKSNWEAGNTFTCSVLHEGLHNHHTEKSLSHSPGKRLDQDKIEALSNKVQQLERSIGLKDLAMADLEQKVSELEVSTSSPAKDPPIQRLRGAVTRCEDGQLFISSYKNEYQTMEVQNNSVVIKCDGLYIIYLKGSFFQEVKIDLHFREDHNPISIPMLNDGRRIVFTVVASLAFKDKVYLTVNAPDTLCEHLQINDGELIVVQLTPGYCAPEGSYHSTVNQVPL
modifications: misc_feature 1..1248 DNA Sequence of mouse construct mIgG1mTF2mOX40L
single agent antitumor activity [1]: weak to modest single agent antitumor activity

B2: MEDI4736: human monoclonal antibody directed against human PD-L1 (antibody, V domains shown)
VH: EVQLVESGGGLVQPGGSLRLSCAASGFTFSRYWMSWVRQAPGKGLEWVANIKQDGSEKYYVDSVKGRFTISRDNAKNSLYLQMNSLRAEDTAVYYCAREGGWFGELAFDYWGQGTLVTVSS
VL: EIVLTQSPGTLSLSPGERATLSCRASQRVSSSYLAWYQQKPGQAPRLLIYDASSRATGIPDRFSGSGSGTDFTLTISRLEPEDFAVYYCQQYGSLPWTFGQGTKVEIK
modifications: MEDI4736 VH; Sequence 72 from PCT/US2010/058007; MEDI4736 VL; Sequence 77 from PCT/US2010/058007
notes: human monoclonal antibody directed against human PD-L1
tumor growth in a xenograft model (xenograft model): inhibits tumor growth
